Measurements from PubChem BioAssay (NCI).
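Test compounds were applied to cells in 96-well plates for 48 hours at 5 doses. TGI marks complete inhibition of growth.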

Tests used:
Test in all cases: NCI anticancer screen, dose series, 48 h
SF-539 CNS = system: SF-539 CNS
M14 melanoma = system: M14 melanoma
SN12C renal = system: SN12C renal
HOP-92 NSCLC = system: HOP-92 NSCLC
UACC-62 melanoma = system: UACC-62 melanoma
CAKI-1 renal = system: CAKI-1 renal
T-47D breast = system: T-47D breast
NCI-H23 lung = system: NCI-H23 lung
UACC-257 melanoma = system: UACC-257 melanoma
NCI-H460 lung = system: NCI-H460 lung
MOLT-4 leukemia = system: MOLT-4 leukemia
MALME-3M melanoma = system: MALME-3M melanoma
HT29 colon = system: HT29 colon
OVCAR-4 ovarian = system: OVCAR-4 ovarian

Cc1ccc(N2C(=O)C(=O)N(/N=C3\C(=O)Nc4ccccc43)C2=S)cc1
TGI (SF-539 CNS): > 100 µM
TGI (M14 melanoma): > 100 µM
TGI (SN12C renal): > 100 µM
TGI (HOP-92 NSCLC): > 100 µM
TGI (UACC-62 melanoma): > 100 µM
TGI (CAKI-1 renal): > 100 µM
TGI (T-47D breast): > 100 µM
TGI (NCI-H23 lung): > 100 µM
TGI (UACC-257 melanoma): > 100 µM
TGI (NCI-H460 lung): > 100 µM
TGI (MOLT-4 leukemia): > 100 µM
TGI (MALME-3M melanoma): > 100 µM
TGI (HT29 colon): > 100 µM

CC1=C(C)C(=O)C(C2=C(C3=CC(=O)C(C)=C(C)C3=O)C(=O)c3ccccc3C2=O)=CC1=O
TGI (SF-539 CNS): 10.5 µM
TGI (M14 melanoma): 3.64 µM
TGI (SN12C renal): 4.06 µM
TGI (HOP-92 NSCLC): 6.72 µM
TGI (UACC-62 melanoma): 4.62 µM
TGI (CAKI-1 renal): 5.66 µM
TGI (T-47D breast): 12.4 µM
TGI (NCI-H23 lung): 10.2 µM
TGI (UACC-257 melanoma): 4.22 µM
TGI (NCI-H460 lung): 37.7 µM
TGI (OVCAR-4 ovarian): 4 µM
TGI (MOLT-4 leukemia): 5.3 µM
TGI (MALME-3M melanoma): 2.8 µM
TGI (HT29 colon): 5.47 µM

Cc1cc(C(O)CNC(C)CCn2cnc3c2c(=O)n(C)c(=O)n3C)ccc1O (stereo not given)
TGI (SF-539 CNS): > 100 µM
TGI (M14 melanoma): > 100 µM
TGI (SN12C renal): > 100 µM
TGI (HOP-92 NSCLC): > 100 µM
TGI (UACC-62 melanoma): > 100 µM
TGI (CAKI-1 renal): > 100 µM
TGI (T-47D breast): > 100 µM
TGI (NCI-H23 lung): > 100 µM
TGI (UACC-257 melanoma): > 100 µM
TGI (NCI-H460 lung): > 100 µM
TGI (OVCAR-4 ovarian): > 100 µM
TGI (MOLT-4 leukemia): > 100 µM
TGI (MALME-3M melanoma): > 100 µM
TGI (HT29 colon): > 100 µM

COc1nc(C)nc2c1ncn2Cc1ccccc1
TGI (SF-539 CNS): > 100 µM
TGI (M14 melanoma): > 100 µM
TGI (SN12C renal): > 100 µM
TGI (HOP-92 NSCLC): 53.9 µM
TGI (UACC-62 melanoma): > 100 µM
TGI (CAKI-1 renal): > 100 µM
TGI (T-47D breast): > 100 µM
TGI (NCI-H23 lung): > 100 µM
TGI (UACC-257 melanoma): > 100 µM
TGI (NCI-H460 lung): > 100 µM
TGI (OVCAR-4 ovarian): > 100 µM
TGI (MALME-3M melanoma): > 100 µM
TGI (HT29 colon): > 100 µM

CCSC12CC3c4cccc5c4C(CN5C(=O)c4ccccc4)CC3(O1)N(C)C2=O (stereo not given)
TGI (SF-539 CNS): > 100 µM
TGI (M14 melanoma): > 100 µM
TGI (SN12C renal): 62.9 µM
TGI (HOP-92 NSCLC): 71.9 µM
TGI (UACC-62 melanoma): 67.9 µM
TGI (CAKI-1 renal): > 100 µM
TGI (T-47D breast): > 100 µM
TGI (NCI-H23 lung): 69.8 µM
TGI (UACC-257 melanoma): > 100 µM
TGI (NCI-H460 lung): > 100 µM
TGI (OVCAR-4 ovarian): > 100 µM
TGI (MOLT-4 leukemia): 62.6 µM
TGI (MALME-3M melanoma): 88.3 µM
TGI (HT29 colon): > 100 µM

Cc1cc(-c2ccc(C(=O)C(c3ccccc3)(c3ccccc3)c3ccccc3)[nH]2)on1
TGI (SF-539 CNS): > 100 µM
TGI (M14 melanoma): 71.8 µM
TGI (SN12C renal): 40.6 µM
TGI (HOP-92 NSCLC): 51.8 µM
TGI (UACC-62 melanoma): 37 µM
TGI (CAKI-1 renal): 69.5 µM
TGI (T-47D breast): > 100 µM
TGI (NCI-H23 lung): 32.4 µM
TGI (UACC-257 melanoma): > 100 µM
TGI (NCI-H460 lung): 21.6 µM
TGI (OVCAR-4 ovarian): 88.1 µM
TGI (MOLT-4 leukemia): 84.9 µM
TGI (MALME-3M melanoma): > 100 µM
TGI (HT29 colon): 25.6 µM

O=C1C(NS(=O)(=O)c2ccccc2)=C(N(Cc2ccccc2)Cc2ccccc2)C(=O)c2ccccc21
TGI (SF-539 CNS): > 100 µM
TGI (M14 melanoma): > 100 µM
TGI (SN12C renal): > 100 µM
TGI (HOP-92 NSCLC): > 100 µM
TGI (UACC-62 melanoma): > 100 µM
TGI (CAKI-1 renal): > 100 µM
TGI (T-47D breast): > 100 µM
TGI (NCI-H23 lung): 73.2 µM
TGI (UACC-257 melanoma): > 100 µM
TGI (NCI-H460 lung): > 100 µM
TGI (OVCAR-4 ovarian): 59 µM
TGI (MOLT-4 leukemia): > 100 µM
TGI (MALME-3M melanoma): 0.584 µM
TGI (HT29 colon): > 100 µM

O=c1c(Sc2ncccn2)c(Sc2ncccn2)cnn1CCl
TGI (SF-539 CNS): 4 µM
TGI (M14 melanoma): 4.76 µM
TGI (SN12C renal): 9.37 µM
TGI (HOP-92 NSCLC): 7.38 µM
TGI (UACC-62 melanoma): 19 µM
TGI (CAKI-1 renal): 5.89 µM
TGI (T-47D breast): 14.2 µM
TGI (NCI-H23 lung): 18.3 µM
TGI (UACC-257 melanoma): 6.77 µM
TGI (NCI-H460 lung): 32.9 µM
TGI (OVCAR-4 ovarian): 6.14 µM
TGI (MOLT-4 leukemia): 10.6 µM
TGI (MALME-3M melanoma): 4.25 µM
TGI (HT29 colon): 4.67 µM

CCOP(=O)(OCC)C(=C1C=C(C(C)(C)C)C(=O)C(C(C)(C)C)=C1)P(=O)(OCC)OCC
TGI (SF-539 CNS): > 10 µM
TGI (M14 melanoma): 4.11 µM
TGI (SN12C renal): > 10 µM
TGI (HOP-92 NSCLC): 6.37 µM
TGI (UACC-62 melanoma): > 10 µM
TGI (CAKI-1 renal): > 6.25 µM
TGI (T-47D breast): 4.04 µM
TGI (NCI-H23 lung): > 10 µM
TGI (UACC-257 melanoma): > 10 µM
TGI (NCI-H460 lung): > 10 µM
TGI (OVCAR-4 ovarian): 3.5 µM
TGI (MOLT-4 leukemia): > 10 µM
TGI (MALME-3M melanoma): 3.38 µM
TGI (HT29 colon): > 10 µM

Cc1cn2c(/C=C3/C(=O)Nc4ccccc43)c(C)nc2s1
TGI (SF-539 CNS): 7.83 µM
TGI (M14 melanoma): > 100 µM
TGI (SN12C renal): 42.2 µM
TGI (HOP-92 NSCLC): > 100 µM
TGI (UACC-62 melanoma): > 100 µM
TGI (CAKI-1 renal): > 100 µM
TGI (T-47D breast): 38.5 µM
TGI (NCI-H23 lung): > 100 µM
TGI (UACC-257 melanoma): > 100 µM
TGI (NCI-H460 lung): 16.1 µM
TGI (MOLT-4 leukemia): 15.2 µM
TGI (MALME-3M melanoma): > 100 µM
TGI (HT29 colon): 15.5 µM

CC(=O)Oc1cc(S(=O)(=O)Nc2n[nH]c(N)n2)c(S)cc1Cl
TGI (SF-539 CNS): > 100 µM
TGI (M14 melanoma): > 100 µM
TGI (SN12C renal): > 100 µM
TGI (HOP-92 NSCLC): > 100 µM
TGI (UACC-62 melanoma): > 100 µM
TGI (CAKI-1 renal): > 100 µM
TGI (T-47D breast): > 100 µM
TGI (NCI-H23 lung): > 100 µM
TGI (UACC-257 melanoma): > 100 µM
TGI (NCI-H460 lung): > 100 µM
TGI (OVCAR-4 ovarian): > 100 µM
TGI (MOLT-4 leukemia): > 100 µM
TGI (MALME-3M melanoma): > 100 µM
TGI (HT29 colon): > 100 µM

COC(=O)C1=NN2c3ccccc3CN([C@@H](C)c3ccccc3)C(=O)[C@H]2[C@@H]1C
TGI (SF-539 CNS): > 100 µM
TGI (M14 melanoma): > 100 µM
TGI (SN12C renal): > 100 µM
TGI (HOP-92 NSCLC): > 100 µM
TGI (UACC-62 melanoma): > 100 µM
TGI (CAKI-1 renal): > 100 µM
TGI (T-47D breast): 88.3 µM
TGI (NCI-H23 lung): > 100 µM
TGI (UACC-257 melanoma): > 100 µM
TGI (NCI-H460 lung): > 100 µM
TGI (OVCAR-4 ovarian): > 100 µM
TGI (MOLT-4 leukemia): > 100 µM
TGI (MALME-3M melanoma): > 100 µM
TGI (HT29 colon): > 100 µM
